Source: patent US20200113854A1, “Composition for Improving Brain Function” (MORINAGA MILK INDUSTRY CO., LTD., priority 2017, published 2020)

Test system: Alzheimer's disease model mice
Protocol: With reference to NPL 6, Alzheimer's disease model mice were prepared according to the following procedure and the improvement effect of acetic acid was evaluated.
Taking the day when the administration was started as Day 1, amyloid was injected on Day 3. Specifically, an animal was anesthetized by intraperitoneally administering 40 mg/kg of pentobarbital sodium (Tokyo Chemical Industry Co., Ltd.) (amount of liquid administered: 10 mL/kg). After anesthesia, levobupivacaine hydrochloride (Popscaine (registered tradename) 0.25% inj., Maruishi Pharmaceutical Co. Ltd.) was subcutaneously administered (0.1 mL) to the scalp. After anesthesia, hair of a parietal region of the animal was cut and the head was fixed on a brain stereotaxic apparatus.
The scalp was disinfected with ethanol for disinfection and then was cut to expose the cranial bone. […]
An animal was placed in any one arm of the Y-shaped maze and was allowed to freely sleuth in the maze for 8 minutes. The order of the arms that the animal moved during the measurement period was recorded and the number of the movements to arms was counted and taken as a total entry number. […]
A spontaneous alternation action rate was calculated with the following formula. […]

## CC(=O)[O-].[Na+] [Sodium acetate, sodium acetate]
Amyloid β injection group, 150 mM sodium acetate with drinking water, Y-maze 8 minutes, p < 0.01 vs Amyloid β + physiological saline
  Spontaneous alternation action rate (%): 67.5%
Intake of 150 mM sodium acetate with drinking water
  cognitive function of Alzheimer disease model mice: improved a cognitive function
